Assay results as given in patent US9783537B2, “3-(4-ethylnylphenyl) pyridopyrimidinone compounds and process for preparation thereof useful as potential anticancer agents” (Council of Scientific & Industrial Research, priority 2013, dated 2017).
Like-named read-outs stand apart in the source and are kept apart here.

What was measured:
PC-3 = assay: SRB 48 h growth assay, Prostate PC-3; type: cell-based, human; conditions: PC-3, Prostate; for GI50 / CC50: Homo sapiens; for CC50: read-out: Log10 LC50 (converted)
SK-MEL-5 = assay: SRB 48 h growth assay, Melanoma SK-MEL-5; type: cell-based, human; conditions: SK-MEL-5, Melanoma
K-562 = assay: SRB 48 h growth assay, Leukemia K-562; type: cell-based, human; conditions: for GI50 / CC50: Homo sapiens, K562, K-562, Leukemia; for CC50: read-out: Log10 LC50 (converted); for Log10 TGI50: K-562, Leukemia
SNB-19 = assay: SRB 48 h growth assay, CNS SNB-19; type: cell-based, human; conditions: SNB-19, CNS; for GI50 / CC50: Homo sapiens; for CC50: read-out: Log10 LC50 (converted)
[1] = system: seven ovarian cancer cell lines (IGROV1, OVCAR-3, OVCAR-4, OVCAR-5, OVCAR-8, NCI/ADR-RES and SK-OV-3); assay: in vitro anticancer activity, ovarian panel; type: cell-based; conditions: Homo sapiens, exposure at least 48 h, read-out: GI50, range over panel
SNB-75 = assay: SRB 48 h growth assay, CNS SNB-75; type: cell-based, human; conditions: SNB-75, CNS
UACC-257 = assay: SRB 48 h growth assay, Melanoma UACC-257; type: cell-based, human; conditions: UACC-257, Melanoma
OVCAR-8 = assay: SRB 48 h growth assay, Ovarian OVCAR-8; type: cell-based, human; conditions: OVCAR-8, Ovarian; for GI50 / CC50: Homo sapiens; for CC50: read-out: Log10 LC50 (converted)
BT-549 = assay: SRB 48 h growth assay, Breast BT-549; type: cell-based, human; conditions: BT-549, Breast
RXF393 = assay: SRB 48 h growth assay, Renal RXF393; type: cell-based, human; conditions: for GI50 / CC50: Homo sapiens; for CC50: RXF 393, read-out: Log10 LC50 (converted)
ACHN = assay: SRB 48 h growth assay, Renal ACHN; type: cell-based, human
HS578T = assay: SRB 48 h growth assay, Breast HS578T; type: cell-based, human; conditions: for GI50 / CC50: Homo sapiens, Hs-578T; for CC50: read-out: Log10 LC50 (converted)
[2] = system: six CNS cancer cell line (SF-268, SF-295, SF-539, SNB-19, SNB-75 and U251); assay: in vitro anticancer activity, CNS panel; type: cell-based; conditions: Homo sapiens; six CNS cancer cell lines, exposure at least 48 h; read-out: GI50, range over panel
MDA-MB-435 = assay: SRB 48 h growth assay, Melanoma MDA-MB-435; type: cell-based, human; conditions: MDA-MB-435, Melanoma; for GI50 / CC50: Homo sapiens; for CC50: read-out: Log10 LC50 (converted)
CCRF-CEM = assay: SRB 48 h growth assay, Leukemia CCRF-CEM; type: cell-based, human; conditions: for CC50 / GI50: Homo sapiens; for CC50: CCKF-CEM, read-out: Log10 LC50 (converted)
[3] = system: six leukemia cancer cell lines (CCRF-CEM, HL-60, K-562, MOLT-4, SR and RPMI-8226); assay: in vitro anticancer activity, leukemia panel; type: cell-based; conditions: Homo sapiens, exposure at least 48 h, read-out: GI50, range over panel
DU-145 = assay: SRB 48 h growth assay, Prostate DU-145; type: cell-based, human; conditions: DU-145, Prostate; for GI50 / CC50: Homo sapiens; for CC50: read-out: Log10 LC50 (converted)
NCI-H226 = assay: SRB 48 h growth assay, Non-small Cell Lung NCI-H226; type: cell-based, human
[4] = in vitro anticancer activity, melanoma panel; type: cell-based; conditions: Homo sapiens; nine melanoma cell lines, exposure at least 48 h; read-out: GI50, range over panel
MDA-MB-468 = assay: SRB 48 h growth assay, Breast MDA-MB-468; type: cell-based, human; conditions: MDA-MB-468, Breast
TK-10 = assay: SRB 48 h growth assay, Renal TK-10; type: cell-based, human; conditions: TK-10, Renal; for GI50 / CC50: Homo sapiens; for CC50: read-out: Log10 LC50 (converted)
A549/ATCC = assay: SRB 48 h growth assay, Non-small Cell Lung A549/ATCC; type: cell-based, human; conditions: for GI50 / CC50: Homo sapiens; for CC50: read-out: Log10 LC50 (converted)
NCI-H522 = assay: SRB 48 h growth assay, Non-small Cell Lung NCI-H522; type: cell-based, human
HOP-92 = assay: SRB 48 h growth assay, Non-small Cell Lung HOP-92; type: cell-based, human; conditions: Homo sapiens, HOP-92, Non-small Cell Lung
SW-620 = assay: SRB 48 h growth assay, Colon SW-620; type: cell-based, human; conditions: SW-620, Colon; for GI50 / CC50: Homo sapiens; for CC50: read-out: Log10 LC50 (converted)
[5] = system: six breast cancer cell line (MCF-7, MDA-MB-231/ATCC, HS 578T, TD-47D, MDA-MB-468 and BT-549); assay: in vitro anticancer activity, breast panel; type: cell-based; conditions: Homo sapiens; six breast cancer cell lines, exposure at least 48 h; read-out: GI50, range over panel
[6] = read-out: Growth Inhibition GI50
[7] = read-out: Log10 GI50 (converted)
[8] = Homo sapiens, read-out: Growth Inhibition GI50
[9] = Homo sapiens, read-out: Log10 GI50 (converted)
[10] = Homo sapiens, read-out: Log10 LC50 (converted)
[11] = RXF 393, read-out: Growth Inhibition GI50
[12] = RXF 393, read-out: Log10 GI50 (converted)

C#Cc1ccc(-n2c(/C=C/c3ccc(C(F)(F)F)cc3)nc3ncccc3c2=O)cc1 [4c, (E)-3-(4-Ethynylphenyl)-2-(4-(trifluoromethyl)styryl)pyrido[2,3-d]pyrimidin-4(3H)-one]
GI50 (PC-3; [6]): 1.96 µM | GI50 (PC-3; [7]): 1.95 µM | CC50 (PC-3): > 100 µM | Log10 TGI50 (PC-3): −5.20 | GI50 (SK-MEL-5; [8]): 1.49 µM | GI50 (SK-MEL-5; [9]): 1.48 µM | CC50 (SK-MEL-5; [10]): 5.5 µM | Log10 TGI50 (SK-MEL-5): −5.54 | GI50 (K-562; [6]): 2.96 µM | GI50 (K-562; [7]): 2.95 µM | CC50 (K-562): > 100 µM | Log10 TGI50 (K-562): −5.06 | GI50 (SNB-19; [6]): 1.91 µM | GI50 (SNB-19; [7]): 1.91 µM | CC50 (SNB-19): 9.55 µM | Log10 TGI50 (SNB-19): −5.37 | GI50 [1]: 1.95 to 7.55 µM | GI50 (SNB-75; [8]): 1.81 µM | GI50 (SNB-75; [9]): 1.82 µM | CC50 (SNB-75; [10]): 28.2 µM | Log10 TGI50 (SNB-75): −5.14 | GI50 (UACC-257; [8]): 1.56 µM | GI50 (UACC-257; [9]): 1.55 µM | CC50 (UACC-257; [10]): 5.62 µM | Log10 TGI50 (UACC-257): −5.53 | GI50 (OVCAR-8; [6]): 1.87 µM | GI50 (OVCAR-8; [7]): 1.86 µM | CC50 (OVCAR-8): 31.6 µM | Log10 TGI50 (OVCAR-8): −5.33 | Log10 TGI50 (BT-549): −5.47 | GI50 (BT-549; [8]): 1.71 µM | GI50 (BT-549; [9]): 1.7 µM | CC50 (BT-549; [10]): 6.61 µM | Log10 TGI50 (RXF393): −5.42 | GI50 (RXF393; [11]): 1.79 µM | GI50 (RXF393; [12]): 1.78 µM | CC50 (RXF393): 7.94 µM | Log10 TGI50 (ACHN): −5.49 | GI50 (ACHN; [8]): 1.71 µM | GI50 (ACHN; [9]): 1.7 µM | CC50 (ACHN; [10]): 6.17 µM | Log10 TGI50 (HS578T): >−4.00 | GI50 (HS578T; [6]): 3.46 µM | GI50 (HS578T; [7]): 3.47 µM | CC50 (HS578T): > 100 µM | GI50 [2]: 2.6 to 3.69 µM | GI50 (MDA-MB-435; [6]): 2.27 µM | GI50 (MDA-MB-435; [7]): 2.29 µM | CC50 (MDA-MB-435): > 100 µM | Log10 TGI50 (MDA-MB-435): −5.19 | Log10 TGI50 (CCRF-CEM): >−4.00 | CC50 (CCRF-CEM): > 100 µM | GI50 (CCRF-CEM; [6]): 1.95 µM | GI50 (CCRF-CEM; [7]): 1.95 µM | GI50 [3]: 0.45 to 2.43 µM | Log10 TGI50 (DU-145): −4.92 | GI50 (DU-145; [6]): 3.76 µM | GI50 (DU-145; [7]): 3.72 µM | CC50 (DU-145): 38.9 µM | Log10 TGI50 (NCI-H226): −5.39 | GI50 (NCI-H226; [8]): 1.99 µM | GI50 (NCI-H226; [9]): 2 µM | LC50 (NCI-H226; [10]): 8.51 µM | GI50 [4]: 0.51 to 4.97 µM | GI50 (MDA-MB-468; [8]): 1.51 µM | GI50 (MDA-MB-468; [9]): 1.51 µM | CC50 (MDA-MB-468; [10]): 8.71 µM | Log10 TGI50 (MDA-MB-468): −5.44 | GI50 (TK-10; [6]): 2.19 µM | GI50 (TK-10; [7]): 2.19 µM | CC50 (TK-10): 6.31 µM | Log10 TGI50 (TK-10): −5.43 | Log10 TGI50 (A549/ATCC): −5.34 | GI50 (A549/ATCC; [6]): 1.83 µM | GI50 (A549/ATCC; [7]): 1.82 µM | CC50 (A549/ATCC): > 100 µM | Log10 TGI50 (NCI-H522): −5.51 | GI50 (NCI-H522; [8]): 1.65 µM | GI50 (NCI-H522; [9]): 1.66 µM | CC50 (NCI-H522; [10]): 5.75 µM | GI50 (HOP-92; [6]): 1.32 µM | GI50 (HOP-92; [7]): 1.32 µM | CC50 (HOP-92; read-out: Log10 LC50 (converted)): 8.91 µM | GI50 (SW-620; [6]): 1.92 µM | GI50 (SW-620; [7]): 1.91 µM | CC50 (SW-620): 7.41 µM | Log10 TGI50 (SW-620): −5.42 | GI50 [5]: 0.96 to 7.62 µM

C#Cc1ccc(-n2c(/C=C/c3ccc(Cl)c(F)c3)nc3ncccc3c2=O)cc1 [4g, (E)-2-(4-chloro-3-fluorostyryl)-3-(4-ethynylphenyl)pyrido[2,3-d]pyrimidin-4(3H)-one]
GI50 (PC-3; [6]): 0.34 µM | GI50 (PC-3; [7]): 0.347 µM | CC50 (PC-3): > 100 µM | GI50 (SK-MEL-5; [8]): 0.22 µM | GI50 (SK-MEL-5; [9]): 0.229 µM | GI50 (K-562; [6]): 0.33 µM | GI50 (K-562; [7]): 0.339 µM | CC50 (K-562): > 100 µM | Log10 TGI50 (K-562): >−4.00 | CC50 (SNB-19): > 100 µM | GI50 [1]: 0.3 to 0.48 µM | GI50 (SNB-75; [8]): 0.34 µM | GI50 (SNB-75; [9]): 0.339 µM | GI50 (UACC-257; [8]): 0.54 µM | GI50 (UACC-257; [9]): 0.537 µM | GI50 (OVCAR-8; [6]): 0.35 µM | GI50 (OVCAR-8; [7]): 0.355 µM | CC50 (OVCAR-8): > 100 µM | GI50 (BT-549; [8]): 0.32 µM | GI50 (BT-549; [9]): 0.324 µM | GI50 (RXF393; [11]): 0.28 µM | GI50 (RXF393; [12]): 0.282 µM | CC50 (RXF393): > 100 µM | GI50 (ACHN; [8]): 0.39 µM | GI50 (ACHN; [9]): 0.398 µM | Log10 TGI50 (HS578T): >−4.00 | GI50 (HS578T; [6]): 0.41 µM | GI50 (HS578T; [7]): 0.417 µM | CC50 (HS578T): > 100 µM | GI50 [2]: 0.34 µM | GI50 (MDA-MB-435; [6]): 0.19 µM | GI50 (MDA-MB-435; [7]): 0.195 µM | CC50 (MDA-MB-435): > 100 µM | CC50 (CCRF-CEM): > 100 µM | GI50 (CCRF-CEM; [6]): 0.29 µM | GI50 (CCRF-CEM; [7]): 0.288 µM | GI50 [3]: 0.25 to 0.54 µM | CC50 (DU-145): > 100 µM | GI50 (NCI-H226; [8]): 0.35 µM | GI50 (NCI-H226; [9]): 0.355 µM | GI50 [4]: 0.19 to 0.54 µM | GI50 (MDA-MB-468; [8]): 0.24 µM | GI50 (MDA-MB-468; [9]): 0.245 µM | CC50 (TK-10): > 100 µM | CC50 (A549/ATCC): > 100 µM | GI50 (NCI-H522; [8]): 0.27 µM | GI50 (NCI-H522; [9]): 0.275 µM | GI50 (HOP-92; [6]): 0.2 µM | GI50 (HOP-92; [7]): 0.204 µM | GI50 (SW-620; [6]): 0.37 µM | GI50 (SW-620; [7]): 0.38 µM | CC50 (SW-620): > 100 µM | GI50 [5]: 0.24 to 0.41 µM
